Test results taken from PubChem BioAssay (NCI).
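Method: 48-hour compound exposure of cells in 96-well plates, five concentrations, linear interpolation of endpoints. TGI marks complete inhibition of growth.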

Legend:
Assay in all cases: NCI tumour cell line growth inhibition, 48 h
786-0 renal = test system: 786-0 renal
HCC-2998 colon = test system: HCC-2998 colon
HT29 colon = test system: HT29 colon
LXFL 529 NSCLC = test system: LXFL 529 NSCLC
SK-MEL-5 melanoma = test system: SK-MEL-5 melanoma
NCI-H226 lung = test system: NCI-H226 lung
RXF-631 renal = test system: RXF-631 renal
HCT-15 colon = test system: HCT-15 colon
KM12 colon = test system: KM12 colon
SW-620 colon = test system: SW-620 colon
U251 CNS = test system: U251 CNS
HOP-18 NSCLC = test system: HOP-18 NSCLC
SNB-19 CNS = test system: SNB-19 CNS
OVCAR-3 ovarian = test system: OVCAR-3 ovarian
UACC-62 melanoma = test system: UACC-62 melanoma
HOP-92 NSCLC = test system: HOP-92 NSCLC
SF-295 CNS = test system: SF-295 CNS
SK-MEL-2 melanoma = test system: SK-MEL-2 melanoma
A549 NSCLC = test system: A549 NSCLC
SK-OV-3 ovarian = test system: SK-OV-3 ovarian
NCI-H522 lung = test system: NCI-H522 lung
M14 melanoma = test system: M14 melanoma
COLO 205 colon = test system: COLO 205 colon
SF-539 CNS = test system: SF-539 CNS
NCI-H23 lung = test system: NCI-H23 lung
DMS 114 small cell lung = test system: DMS 114 small cell lung
CAKI-1 renal = test system: CAKI-1 renal
SNB-75 CNS = test system: SNB-75 CNS
M19-MEL melanoma = test system: M19-MEL melanoma
MOLT-4 leukemia = test system: MOLT-4 leukemia
RXF 393 renal = test system: RXF 393 renal
SNB-78 CNS = test system: SNB-78 CNS
OVCAR-8 ovarian = test system: OVCAR-8 ovarian
EKVX NSCLC = test system: EKVX NSCLC
HL-60(TB) leukemia = test system: HL-60(TB) leukemia
ACHN renal = test system: ACHN renal
DLD-1 colon = test system: DLD-1 colon
NCI-H460 lung = test system: NCI-H460 lung
UO-31 renal = test system: UO-31 renal
DMS 273 small cell lung = test system: DMS 273 small cell lung
SK-MEL-28 melanoma = test system: SK-MEL-28 melanoma
OVCAR-4 ovarian = test system: OVCAR-4 ovarian
IGROV1 ovarian = test system: IGROV1 ovarian
MALME-3M melanoma = test system: MALME-3M melanoma
OVCAR-5 ovarian = test system: OVCAR-5 ovarian
KM20L2 colon = test system: KM20L2 colon
CCRF-CEM leukemia = test system: CCRF-CEM leukemia
RPMI-8226 leukemia = test system: RPMI-8226 leukemia
SN12C renal = test system: SN12C renal
A498 renal = test system: A498 renal
HOP-62 NSCLC = test system: HOP-62 NSCLC
UACC-257 melanoma = test system: UACC-257 melanoma
HCT-116 colon = test system: HCT-116 colon
LOX IMVI melanoma = test system: LOX IMVI melanoma
SF-268 CNS = test system: SF-268 CNS
K-562 leukemia = test system: K-562 leukemia
XF 498 CNS = test system: XF 498 CNS
TK-10 renal = test system: TK-10 renal
SR leukemia = test system: SR leukemia

**Q.** For `Cc1nc(N)c(-c2ccccc2)s1`, which TGI (786-0 renal) is on record?
**A.** > 100 µM

**Q.** What about the TGI (HCC-2998 colon) of the same molecule?
**A.** > 100 µM

**Q.** And the TGI (HT29 colon)?
**A.** > 100 µM

**Q.** What about the TGI (LXFL 529 NSCLC) of the same molecule?
**A.** > 100 µM

**Q.** What about the TGI (SK-MEL-5 melanoma) of the same molecule?
**A.** > 100 µM

**Q.** And the TGI (NCI-H226 lung)?
**A.** > 100 µM

**Q.** And the TGI (RXF-631 renal)?
**A.** > 100 µM

**Q.** And the TGI (HCT-15 colon)?
**A.** > 62.1 µM

**Q.** And the TGI (KM12 colon)?
**A.** > 100 µM

**Q.** What about the TGI (SW-620 colon) of the same molecule?
**A.** > 45.6 µM

**Q.** And the TGI (U251 CNS)?
**A.** > 76.4 µM

**Q.** What about the TGI (HOP-18 NSCLC) of the same molecule?
**A.** > 100 µM

**Q.** And the TGI (SNB-19 CNS)?
**A.** > 100 µM

**Q.** What about the TGI (OVCAR-3 ovarian) of the same molecule?
**A.** > 100 µM

**Q.** What about the TGI (UACC-62 melanoma) of the same molecule?
**A.** > 100 µM

**Q.** And the TGI (HOP-92 NSCLC)?
**A.** > 100 µM

**Q.** What about the TGI (SF-295 CNS) of the same molecule?
**A.** 92.4 µM

**Q.** What about the TGI (SK-MEL-2 melanoma) of the same molecule?
**A.** > 100 µM

**Q.** What about the TGI (A549 NSCLC) of the same molecule?
**A.** > 100 µM

**Q.** What about the TGI (SK-OV-3 ovarian) of the same molecule?
**A.** > 100 µM

**Q.** What about the TGI (NCI-H522 lung) of the same molecule?
**A.** > 100 µM

**Q.** And the TGI (M14 melanoma)?
**A.** > 100 µM

**Q.** What about the TGI (COLO 205 colon) of the same molecule?
**A.** > 66.7 µM

**Q.** What about the TGI (SF-539 CNS) of the same molecule?
**A.** > 100 µM

**Q.** And the TGI (NCI-H23 lung)?
**A.** > 100 µM

**Q.** And the TGI (DMS 114 small cell lung)?
**A.** > 100 µM

**Q.** What about the TGI (CAKI-1 renal) of the same molecule?
**A.** > 100 µM

**Q.** What about the TGI (SNB-75 CNS) of the same molecule?
**A.** > 100 µM

**Q.** And the TGI (M19-MEL melanoma)?
**A.** > 100 µM

**Q.** And the TGI (MOLT-4 leukemia)?
**A.** > 100 µM

**Q.** What about the TGI (RXF 393 renal) of the same molecule?
**A.** > 68.9 µM

**Q.** What about the TGI (SNB-78 CNS) of the same molecule?
**A.** > 100 µM

**Q.** And the TGI (OVCAR-8 ovarian)?
**A.** > 100 µM

**Q.** What about the TGI (EKVX NSCLC) of the same molecule?
**A.** > 100 µM

**Q.** And the TGI (HL-60(TB) leukemia)?
**A.** > 72.9 µM

**Q.** And the TGI (ACHN renal)?
**A.** > 100 µM

**Q.** What about the TGI (DLD-1 colon) of the same molecule?
**A.** > 100 µM

**Q.** What about the TGI (NCI-H460 lung) of the same molecule?
**A.** > 100 µM

**Q.** What about the TGI (UO-31 renal) of the same molecule?
**A.** > 100 µM

**Q.** And the TGI (DMS 273 small cell lung)?
**A.** > 100 µM

**Q.** What about the TGI (SK-MEL-28 melanoma) of the same molecule?
**A.** > 100 µM

**Q.** What about the TGI (OVCAR-4 ovarian) of the same molecule?
**A.** > 100 µM

**Q.** And the TGI (IGROV1 ovarian)?
**A.** > 100 µM

**Q.** What about the TGI (MALME-3M melanoma) of the same molecule?
**A.** > 100 µM

**Q.** What about the TGI (OVCAR-5 ovarian) of the same molecule?
**A.** > 100 µM

**Q.** What about the TGI (KM20L2 colon) of the same molecule?
**A.** > 100 µM

**Q.** What about the TGI (CCRF-CEM leukemia) of the same molecule?
**A.** > 73.9 µM

**Q.** And the TGI (RPMI-8226 leukemia)?
**A.** > 72.1 µM

**Q.** What about the TGI (SN12C renal) of the same molecule?
**A.** > 100 µM

**Q.** What about the TGI (A498 renal) of the same molecule?
**A.** > 100 µM

**Q.** What about the TGI (HOP-62 NSCLC) of the same molecule?
**A.** > 100 µM

**Q.** And the TGI (UACC-257 melanoma)?
**A.** > 96.1 µM

**Q.** What about the TGI (HCT-116 colon) of the same molecule?
**A.** > 66.8 µM

**Q.** And the TGI (LOX IMVI melanoma)?
**A.** > 94.4 µM

**Q.** And the TGI (SF-268 CNS)?
**A.** > 100 µM

**Q.** And the TGI (K-562 leukemia)?
**A.** > 100 µM

**Q.** And the TGI (XF 498 CNS)?
**A.** > 100 µM

**Q.** What about the TGI (TK-10 renal) of the same molecule?
**A.** > 100 µM

**Q.** Which results are given for `Cn1c2[n+](c3nc(N)[nH]c(=O)c31)C1OC(C2)C(O)C1O` (centres undefined)?
**A.** TGI (786-0 renal): > 100 µM; TGI (HCC-2998 colon): > 100 µM; TGI (HT29 colon): > 100 µM; TGI (LXFL 529 NSCLC): > 100 µM; TGI (SK-MEL-5 melanoma): > 100 µM; TGI (NCI-H226 lung): > 100 µM; TGI (RXF-631 renal): > 100 µM; TGI (KM12 colon): > 100 µM; TGI (SW-620 colon): > 100 µM; TGI (U251 CNS): > 100 µM; TGI (HOP-18 NSCLC): > 100 µM; TGI (SNB-19 CNS): > 100 µM; TGI (OVCAR-3 ovarian): > 100 µM; TGI (UACC-62 melanoma): > 100 µM; TGI (HOP-92 NSCLC): > 100 µM; TGI (SF-295 CNS): > 100 µM; TGI (SK-MEL-2 melanoma): > 100 µM; TGI (A549 NSCLC): > 100 µM; TGI (SK-OV-3 ovarian): > 100 µM; TGI (SR leukemia): > 100 µM; TGI (NCI-H522 lung): > 100 µM; TGI (M14 melanoma): > 100 µM; TGI (COLO 205 colon): > 100 µM; TGI (SF-539 CNS): > 100 µM; TGI (NCI-H23 lung): > 100 µM; TGI (DMS 114 small cell lung): > 100 µM; TGI (CAKI-1 renal): > 100 µM; TGI (SNB-75 CNS): > 100 µM; TGI (M19-MEL melanoma): > 100 µM; TGI (MOLT-4 leukemia): > 100 µM; TGI (RXF 393 renal): > 100 µM; TGI (SNB-78 CNS): > 100 µM; TGI (OVCAR-8 ovarian): > 100 µM; TGI (EKVX NSCLC): > 100 µM; TGI (HL-60(TB) leukemia): > 100 µM; TGI (ACHN renal): > 100 µM; TGI (DLD-1 colon): > 100 µM; TGI (UO-31 renal): > 100 µM; TGI (DMS 273 small cell lung): > 100 µM; TGI (SK-MEL-28 melanoma): > 100 µM; TGI (OVCAR-4 ovarian): > 100 µM; TGI (IGROV1 ovarian): > 100 µM; TGI (MALME-3M melanoma): > 100 µM; TGI (OVCAR-5 ovarian): > 100 µM; TGI (KM20L2 colon): > 100 µM; TGI (CCRF-CEM leukemia): > 100 µM; TGI (SN12C renal): > 100 µM; TGI (A498 renal): > 100 µM; TGI (HOP-62 NSCLC): > 100 µM; TGI (UACC-257 melanoma): > 100 µM; TGI (HCT-116 colon): > 100 µM; TGI (LOX IMVI melanoma): > 100 µM; TGI (SF-268 CNS): > 100 µM; TGI (K-562 leukemia): > 100 µM; TGI (XF 498 CNS): > 100 µM; TGI (TK-10 renal): > 100 µM
